Assay results reported in patent publication US11369565B2, “Amino-pyrimidine skeletal muscle modulators” (Cytokinetics, Inc., priority 2010, dated 2022).

The molecules below were run on rabbit skeletal myofibrils (approximately 90% fast fibers) (assay: Activation of fast skeletal myofibrils (PUMA coupled-enzyme ATPase assay at pCa25)). Conditions: concentration at which the compound increased the enzymatic activity by 40%; calcium at pCa25; PM12 buffer pH 6.8.
Format: biochemical
Summary of the method: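 In pH 6.8 PM12 buffer (12 mM Pipes, 2 mM MgCl2, 1 mM DTT), ADP from myosin regenerated via pyruvate kinase/lactate dehydrogenase, with absorbance change at 340 nm from NADH oxidation as read-out. Calcium set at pCa25; Triton-washed rabbit skeletal myofibrils (about 90% fast fibres) used.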

Question: For `CN1CCc2nc(NCC(C)(C)c3ccc(F)cc3)ncc2C1` [[2-(4-fluorophenyl)-2-methylpropyl](6-methyl (5,6,7,8-tetrahydropyridino [4,3-d]pyrimidin-2-yl))amine], which “Mean AC1.4” value is on record?
Answer: D (D=>20 uM)

Question: With `O=C(NC1CC(O)C1)c1ccc(F)c(-c2cnc(NC[C@]3(c4ncccc4F)C[C@H](F)C3)nc2)c1` (stereo partly shown) [{4-fluoro-3-[2-({[3-fiuoro-1-(3-fluoro(2-pyridyl))cyclobutyl]methyl}amino)pyrimidin-5-yl]phenyl}-N-(3-hydroxycyclobutyl)carboxamide] as the molecule, how does the “Mean AC1.4” value read?
Answer: A (A=<1 uM)

Question: For `CC(C)(Nc1ncc(-c2cnc(N)nc2)cn1)c1ncccc1F` [[5-(2-aminopyrimidin-5-yl)pyrimidin-2-yl][1-(3-fluoro(2-pyridyl))-isopropyl]amine], which “Mean AC1.4” value is on record?
Answer: D (D=>20 uM)

Question: Which “Mean AC1.4” value does the source give for `CS(=O)(=O)NCc1cnc(-c2cnc(NCC3(c4ncccc4F)CCC3)nc2)s1` [({2-[2-({[(3-fluoro(2-pyridyl))cyclobutyl]methyl}amino)pyrimidin-5-yl](1,3-thiazol-5-yl)}methyl)(methylsulfonyl)amine] here?
Answer: B (B=1-10 uM)

Question: `NC(=O)c1ccc(F)c(-c2cnc(NC3(c4ccc(F)cc4)CCC3)nc2)c1` [4-fluoro-3-(2-{[(4-fluorophenyl)cyclobutyl]amino}pyrimidin-5-yl)benzamide] was tested. Which “Mean AC1.4” value did it give?
Answer: A (A=<1 uM)

Question: With `O=C(Nc1ccncc1)c1cnc(NCC2(c3ncccc3F)CCC2)nc1` [[2-({[(3-fluoro(2-pyridyl))cyclobutyl]methyl}amino)pyrimidin-5-yl]-N-(4-pyridyl)carboxamide] as the molecule, how does the “Mean AC1.4” value read?
Answer: B (B=1-10 uM)

Question: Which “Mean AC1.4” value does the source give for `Oc1ncc(-c2cnc(N3CC4(c5ncccc5F)CC3C4)nc2)cn1` [5-{2-[4-(3-fluoro-2-pyridyl)-2-azabicyclo[2.1.1]hex-2-yl]pyrimidin-5-yl}pyrimidin-2-ol] here?
Answer: D (D=>20 uM)

Question: `Fc1cccnc1C1(Nc2nccc(C(F)(F)F)n2)CCC1` [[(3-fluoro(2-pyridyl))cyclobutyl][4-(trifluoromethyl)pyrimidin-2-yl]amine] was tested. Which “Mean AC1.4” value did it give?
Answer: D (D=>20 uM)

Question: `CC(C)(Nc1ncc(-c2cc(C(N)=O)ccc2F)cn1)c1ncccc1Cl` [3-(2-{[1-(3-chloro(2-pyridyl))-isopropyl]amino}pyrimidin-5-yl)-4-fluorobenzamide] was tested. Which “Mean AC1.4” value did it give?
Answer: A (A=<1 uM)

Question: How did the “Mean AC1.4” value turn out when `NC(=O)Cc1cnc(-c2cnc(NC[C@]3(c4ncccc4F)C[C@H](F)C3)nc2)s1` [2-{2-[2-({[3-fluoro-1-(3-fluoro(2-pyridyl))cyclobutyl]methyl)amino)pyrimidin-5-yl]-1,3-thiazol-5-yl}acetamide] was run?
Answer: B (B=1-10 uM)

Question: For `CC(C)(Nc1ncc(-c2cn3c(C(=O)O)csc3n2)cn1)c1ncccc1Cl`, which “Mean AC1.4” value is on record?
Answer: B (B=1-10 uM)

Question: Which “Mean AC1.4” value does the source give for `CC(C)(Nc1ncc(-c2ncc(CN)s2)cn1)c1ncccc1Cl` [{5-[5-(aminomethyl)(1,3-thiazol-2-yl)]pyrimidin-2-yl}[1-(3-chloro(2-pyridyl))-isopropyl]amine] here?
Answer: D (D=>20 uM)

Question: With `CC(C)(CNc1ncc(-c2ccc3[nH]c(=O)[nH]c3c2)cn1)c1ccc(F)cc1` [5-(2-{[2-(4-fluorophenyl)-2-methylpropyl]amino}pyrimidin-5-yl)-3-hydrobenzimidazol-2-one] as the molecule, how does the “Mean AC1.4” value read?
Answer: B (B=1-10 uM)

Question: `NC(=O)c1cnc(NC2(c3ncccc3F)CCC2)nc1` [2-{[(3-fluoro-2-pyridyl)cyclobutyl]amino}pyrimidine-5-carboxamide] was tested. Which “Mean AC1.4” value did it give?
Answer: D (D=>20 uM)

Question: How did the “Mean AC1.4” value turn out when `Fc1ccccc1-c1cnc(NC[C@]2(c3ncccc3F)C[C@H](F)C2)nc1` [{[3-fluoro-1-(3-fluoro(2-pyridyl))cyclobutyl]methyl}[5-(2-fluorophenyl)pyrimidin-2-yl]amine] was run?
Answer: A (A=<1 uM)

Question: `NC(=O)c1ccc(F)c(-c2cnc(NC3(c4ncccc4F)CCC3)nc2)c1` [4-fluoro-3-(2-{[(3-fluoro(2-pyridyl))cyclobutyl]amino}pyrimidin-5-yl)benzamide] was tested. Which “Mean AC1.4” value did it give?
Answer: A (A=<1 uM)

Question: `Nc1ncc(F)c(-c2cnc(NC[C@]3(c4ncccc4F)C[C@H](F)C3)nc2)n1` [[5-(2-amino-5-fluoropyrimidin-4-yl)pyrimidin-2-yl]{[3-fluoro-1-(3-fluoro(2-pyridyl))cyclobutyl]methyl}amine] was tested. Which “Mean AC1.4” value did it give?
Answer: B (B=1-10 uM)

Question: Which “Mean AC1.4” value does the source give for `COC(=O)c1ccn(-c2cnc(NC[C@]3(c4ncccc4F)C[C@H](F)C3)nc2)c1` [methyl 1-[2-({[3-fluoro-1-(3-fluoro(2-pyridyl))cyclobutyl]methyl}amino)pyrimidin-5-yl]pyrrole-3-carboxylate] here?
Answer: D (D=>20 uM)

Question: Which “Mean AC1.4” value does the source give for `Fc1cccnc1C1(CNc2ncc(-c3ncc[nH]3)cn2)CCC1` [{[(3-fluoro(2-pyridyl))cyclobutyl]methyl}(5-imidazol-2-ylpyrimidin-2-yl)amine] here?
Answer: C (C=10-20 uM)

Question: With `COc1cccnc1C(C)(C)Nc1ncc(-c2cc(C#N)ccc2F)cn1` [4-fluoro-3-(2-{[1-(3-methoxy(2-pyridyl))-isopropyl]amino}pyrimidin-5-yl)benzenecarbonitrile] as the molecule, how does the “Mean AC1.4” value read?
Answer: D (D=>20 uM)

Question: How did the “Mean AC1.4” value turn out when `CC(C)(Nc1ncc(-n2cc(C#N)cn2)cn1)c1ncccc1Cl` [1-(2-{[1-(3-chloro(2-pyridyl))-isopropyl]amino}pyrimidin-5-yl)pyrazole-4-carbonitrile] was run?
Answer: D (D=>20 uM)

Question: With `CC(C)(Nc1ncc(C2N=NN=N2)cn1)c1ncccc1Cl` [(5-(5H-1,2,3,4-tetraazol-5-yl)pyrimidin-2-yl)[1-(3-chloro(2-pyridyl))-isopropyl]amine] as the molecule, how does the “Mean AC1.4” value read?
Answer: D (D=>20 uM)

Question: How did the “Mean AC1.4” value turn out when `COc1ccc(Cl)c(C(C)(C)Nc2ncc(-c3cccc(C(N)=O)c3)cn2)n1` [3-(2-{[1-(3-chloro-6-methoxy(2-pyridyl))-isopropyl]amino}pyrimidin-5-yl)benzamide] was run?
Answer: A (A=<1 uM)

Question: `NCc1cnc(-c2cnc(NCC3(c4ncccc4Cl)CCC3)nc2)s1` [{5-[5-(aminomethyl)(1,3-thiazol-2-yl)]pyrimidin-2-yl}{[3-chloro(2-pyridyl))cyclobutyl]methyl)amine] was tested. Which “Mean AC1.4” value did it give?
Answer: B (B=1-10 uM)

Question: With `Cc1nc(NC[C@]2(c3ncccc3F)C[C@H](F)C2)ncc1-c1cccc(CC(N)=O)c1` [2-{3-[2-({[3-fluoro-1-(3-fluoro(2-pyridyl))cyclobutyl]methyl}amino)-4-methylpyrimidin-5-yl]phenyl}acetamide] as the molecule, how does the “Mean AC1.4” value read?
Answer: C (C=10-20 uM)

Question: `CC(C)(Nc1ncc(-c2cnn(CCO)c2)cn1)c1ncccc1Cl` [2-[4-(2-{[1-(3-chloro(2-pyridyl))-isopropyl]amino}pyrimidin-5-yl)pyrazolyl]ethan-1-ol] was tested. Which “Mean AC1.4” value did it give?
Answer: D (D=>20 uM)

Question: With `CC(C)(Nc1ncc(-c2cc(C#N)ccc2F)cn1)c1ncccc1C(F)F` [3-[2-({1[3-(difluoromethyl)(2-pyridyl)]-isopropyl}amino)pyrimidin-5-yl]-4-fluorobenzenecarbonitrile] as the molecule, how does the “Mean AC1.4” value read?
Answer: B (B=1-10 uM)

Question: Which “Mean AC1.4” value does the source give for `CC(=O)NCc1cccc(-c2cnc(NC(C)(C)c3ncccc3F)nc2)c1` [N-{[3-(2-{[1-(3-fluoro(2-pyridyl))-isopropyl]amino}pyrimidin-5-yl)phenyl]methyl}acetamide] here?
Answer: C (C=10-20 uM)
